Test results as given in patent US20230382925A1, “MODULATORS OF CYSTIC FIBROSIS TRANSMEMBRANE CONDUCTANCE REGULATOR” (VERTEX PHARMACEUTICALS INCORPORATED, priority 2020, published 2023).
pEC50: −log10 of the molar value. Read-outs that look alike come from different tables or passages of the source.

Target: CFTR (Homo sapiens, UniProt P13569)
Assay: Membrane Potential Dye, Enteroid Assay B
Format: cell-based
Outline: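 Human intestinal enteroid cells exposed to compound 18-24 h at 37 °C, then loaded with methyl oxonol membrane-potential dye plus CaCC blockers. Chloride transport triggered in chloride-free buffer with 10 μM forskolin, 100 μM IBMX, 300 nM Compound III; fluorescence read 15 min, expressed as % of triple-corrector/potentiator combination control.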

[1] = Table 10, read-out: Ent. B EC50

Sequence of CFTR (P13569 with tags, fused parts or gaps DEL508-508): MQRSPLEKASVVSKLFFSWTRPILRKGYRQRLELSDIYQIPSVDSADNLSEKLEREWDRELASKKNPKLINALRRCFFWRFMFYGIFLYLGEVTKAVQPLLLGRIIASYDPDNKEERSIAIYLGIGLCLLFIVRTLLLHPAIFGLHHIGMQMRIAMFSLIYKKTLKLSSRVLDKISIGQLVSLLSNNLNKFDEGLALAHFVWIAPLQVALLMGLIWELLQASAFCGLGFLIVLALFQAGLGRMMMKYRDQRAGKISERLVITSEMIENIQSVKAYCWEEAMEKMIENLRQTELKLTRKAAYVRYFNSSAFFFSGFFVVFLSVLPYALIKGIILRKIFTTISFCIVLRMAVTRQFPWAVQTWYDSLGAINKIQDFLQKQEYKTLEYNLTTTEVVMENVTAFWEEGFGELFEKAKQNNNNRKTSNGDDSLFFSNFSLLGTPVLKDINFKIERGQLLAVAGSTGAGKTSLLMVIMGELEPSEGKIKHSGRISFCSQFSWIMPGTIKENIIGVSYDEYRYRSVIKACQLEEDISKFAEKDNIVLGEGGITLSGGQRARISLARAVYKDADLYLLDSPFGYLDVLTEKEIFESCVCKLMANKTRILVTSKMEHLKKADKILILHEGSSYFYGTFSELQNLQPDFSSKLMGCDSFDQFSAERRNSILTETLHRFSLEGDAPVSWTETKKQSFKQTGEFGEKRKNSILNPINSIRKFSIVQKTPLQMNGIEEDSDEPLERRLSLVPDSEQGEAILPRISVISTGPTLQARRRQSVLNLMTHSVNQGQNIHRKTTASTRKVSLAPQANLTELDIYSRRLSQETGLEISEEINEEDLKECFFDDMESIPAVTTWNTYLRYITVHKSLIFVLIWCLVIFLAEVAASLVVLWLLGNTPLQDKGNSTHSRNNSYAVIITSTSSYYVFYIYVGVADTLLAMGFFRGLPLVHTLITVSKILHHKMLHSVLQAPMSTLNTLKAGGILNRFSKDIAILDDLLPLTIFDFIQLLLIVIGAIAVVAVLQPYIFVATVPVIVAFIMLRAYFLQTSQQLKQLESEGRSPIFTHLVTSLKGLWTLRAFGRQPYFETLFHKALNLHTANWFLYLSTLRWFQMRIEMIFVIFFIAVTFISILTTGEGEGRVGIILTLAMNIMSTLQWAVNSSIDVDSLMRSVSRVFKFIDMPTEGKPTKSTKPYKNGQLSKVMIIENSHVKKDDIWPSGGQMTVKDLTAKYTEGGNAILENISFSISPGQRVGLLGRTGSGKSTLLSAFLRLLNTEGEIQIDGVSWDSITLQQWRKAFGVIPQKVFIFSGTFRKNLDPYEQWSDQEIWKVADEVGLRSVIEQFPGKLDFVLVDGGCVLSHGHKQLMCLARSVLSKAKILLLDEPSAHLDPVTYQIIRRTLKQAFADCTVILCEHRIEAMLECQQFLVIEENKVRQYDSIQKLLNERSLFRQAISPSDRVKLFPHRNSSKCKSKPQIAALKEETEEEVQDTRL

Row | Compound | Ent. B Max Activity (%) (Table 10) | pEC50 [1] | Ent. B Max Activity (%) (Table 9) | pEC50 (Table 9, read-out: Ent. B EC50) | also measured
1 | Cc1cccc(C)c1-c1cc2nc(n1)NS(=O)(=O)c1cccc(c1)C(=O)N(C1CC(NC(=O)OC(C)C)C1)[C@H](CC(C)(C)C(F)(F)F)CO2 (single isomer, unassigned) [Compound 195] | ++ (++ is 30-60%) | > 6.00 |  |  | 
2 | CCN(C(=O)OC)C1CC(N2C(=O)c3cccc(c3)S(=O)(=O)Nc3nc(cc(-c4c(C)cccc4C)n3)OC[C@H]2CC(C)(C)C)C1 (single isomer, unassigned) [Compound 237] | ++ (++ is 30-60%) | > 6.00 |  |  | 
3 | CCN(C(=O)OC)C1CC(N2C(=O)c3cccc(c3)S(=O)(=O)Nc3nc(cc(-c4c(C)cccc4C)n3)OC[C@H]2CC(C)(C)C)C1 (single isomer, unassigned) [Compound 238] | ++ (++ is 30-60%) | > 6.00 |  |  | 
4 | CCC(=O)N(C)C1CC(N2C(=O)c3cccc(c3)S(=O)(=O)Nc3nc(cc(-c4c(C)cccc4C)n3)OC[C@H]2CC(C)(C)C)C1 (single isomer, unassigned) [Compound 240] | ++ (++ is 30-60%) | > 6.00 |  |  | 
5 | Cc1cccc(C)c1-c1cc2nc(n1)NS(=O)(=O)c1cccc(c1)C(=O)N(C1CC(NC(=O)C(C)C)C1)[C@H](CC(C)(C)C)CO2 (single isomer, unassigned) [Compound 444] |  |  | +++ (+++ is >60%) | > 6.00 | 
6 | CC(=O)NC1CC(N2C(=O)c3cccc(c3)S(=O)(=O)Nc3nc(cc(-c4c(C)cccc4C)n3)OC[C@H]2CC(C)(C)C)C1 (single isomer, unassigned) [Compound 448] |  |  | +++ (+++ is >60%) | > 6.00 | 
7 | Cc1cccc(C)c1-c1cc2nc(n1)NS(=O)(=O)c1cccc(c1)C(=O)N([C@H]1C[C@@H](OC(F)(F)F)C1)[C@H](CC1(C(F)(F)F)CC1)CO2 (stereo in doubt) [Compound 212] | ++ (++ is 30-60%) | > 6.00 |  |  | 
8 | Cc1cccc(C)c1-c1cc2nc(n1)NS(=O)(=O)c1cccc(c1)C(=O)N(C1CC(OC(F)(F)F)C1)[C@H](CC(C)C)CO2 (stereo in doubt) [Compound 213] |  |  | +++ (+++ is >60%) | > 6.00 | 
9 | Cc1cccc(C)c1-c1cc2nc(n1)NS(=O)(=O)c1cccc(c1)C(=O)N(C1CC(OC(F)(F)F)C1)[C@H](CC(C)C)CO2 (stereo in doubt) [Compound 214] |  |  | +++ (+++ is >60%) | > 6.00 | 
10 | CCN(C(=O)OC)C1CC2(C1)CC(N1C(=O)c3cccc(c3)S(=O)(=O)Nc3nc(cc(-c4c(C)cccc4C)n3)OC[C@H]1CC(C)(C)C)C2 (stereo in doubt) [Compound 236] | ++ (++ is 30-60%) | > 6.00 |  |  | 
11 | CCC(=O)N(C)C1CC(N2C(=O)c3cccc(c3)S(=O)(=O)Nc3nc(cc(-c4c(C)cccc4C)n3)OC[C@H]2CC(C)(C)C)C1 (stereo in doubt) [Compound 239] | ++ (++ is 30-60%) | > 6.00 |  |  | 
12 | COC(=O)N(C)C1(C)CC(N2C(=O)c3cccc(c3)S(=O)(=O)Nc3nc(cc(-c4c(C)cccc4C)n3)OC[C@H]2CC(C)(C)C)C1 (stereo in doubt) [Compound 241] | ++ (++ is 30-60%) | > 6.00 |  |  | 
13 | Cc1cccc(C)c1-c1cc2nc(n1)NS(=O)(=O)c1cccc(c1)C(=O)N([C@H]1C[C@](C)(NC(=O)OC(C)C)C1)[C@H](CC(C)(C)C)CO2 (stereo in doubt) [Compound 244] | ++ (++ is 30-60%) | > 6.00 |  |  | 
14 | Cc1cccc(C)c1-c1cc2nc(n1)NS(=O)(=O)c1cccc(c1)C(=O)N([C@H]1C[C@](C)(NC(=O)OC(C)C)C1)[C@H](CC(C)(C)C)CO2 (stereo in doubt) [Compound 245] | +++ (+++ is >60%) | > 6.00 |  |  | 
15 | Cc1cccc(C)c1-c1cc2nc(n1)NS(=O)(=O)c1cccc(c1)C(=O)N([C@H]1C[C@@H](N3CCOC3=O)C1)[C@H](CC(C)(C)C)CO2 (stereo in doubt) [Compound 251] | +++ (+++ is >60%) | > 6.00 |  |  | 
16 | Cc1cccc(C)c1-c1cc2nc(n1)NS(=O)(=O)c1cccc(c1)C(=O)N([C@H]1C[C@@H](N(CCO)CCO)C1)[C@H](CC(C)(C)C)CO2 (stereo in doubt) [Compound 252] | + (+ is <300%) | > 6.00 |  |  | 
17 | COC(=O)N(C)[C@H]1C[C@@]2(C1)C[C@H](N1C(=O)c3cccc(c3)S(=O)(=O)Nc3nc(cc(-c4c(C)cccc4C)n3)OC[C@H]1CC1(C(F)(F)F)CC1)C2 (stereo in doubt) [Compound 259] |  |  | +++ (+++ is >60%) | > 6.00 | 
18 | COC(=O)N(C)[C@H]1C[C@]2(C1)C[C@H](N1C(=O)c3cccc(c3)S(=O)(=O)Nc3nc(cc(-c4c(C)cccc4C)n3)OC[C@H]1CC1(C(F)(F)F)CC1)C2 (stereo in doubt) [Compound 260] |  |  | +++ (+++ is >60%) | > 6.00 | 
19 | COC(=O)NC[C@H]1C[C@@H](N2C(=O)c3cccc(c3)S(=O)(=O)Nc3nc(cc(-c4c(C)cccc4C)n3)OC[C@H]2CC(C)C)C1 (stereo in doubt) [Compound 264] |  |  | +++ (+++ is >60%) | > 6.00 | 

Row | Compound | Ent. B Max Activity (%) (Table 10) | pEC50 [1] | Ent. B Max Activity (%) (Table 9) | pEC50 (Table 9, read-out: Ent. B EC50) | also measured
20 | COCCN1CC(N2C(=O)c3cccc(c3)S(=O)(=O)Nc3nc(cc(-c4c(C)cccc4C)n3)OC[C@H]2CC(C)C)CC1(C)C (stereo in doubt) [Compound 277] |  |  | +++ (+++ is >60%) | 5.52 to 6.00 | 
21 | CNC1CC2(C1)CC(N1C(=O)c3cccc(c3)S(=O)(=O)Nc3nc(cc(-c4c(C)cccc4C)n3)OC[C@H]1CC(C)C)C2 (stereo in doubt) [Compound 282] |  |  | +++ (+++ is >60%) | > 6.00 | 
22 | COCCNC1CC2(C1)CC(N1C(=O)c3cccc(c3)S(=O)(=O)Nc3nc(cc(-c4c(C)cccc4C)n3)OC[C@H]1CC(C)C)C2 (stereo in doubt) [Compound 287] |  |  | +++ (+++ is >60%) | > 6.00 | 
23 | COCCNC1CC2(C1)CC(N1C(=O)c3cccc(c3)S(=O)(=O)Nc3nc(cc(-c4c(C)cccc4C)n3)OC[C@H]1CC(C)C)C2 (stereo in doubt) [Compound 288] |  |  | +++ (+++ is >60%) | > 6.00 | 
24 | Cc1cccc(C)c1-c1cc2nc(n1)NS(=O)(=O)c1cccc(c1)C(=O)N(C1CC3(CC(N)C3)C1)[C@H](CC(C)C)CO2 (stereo in doubt) [Compound 291] |  |  | +++ (+++ is >60%) | > 6.00 | 
25 | Cc1cccc(C)c1-c1cc2nc(n1)NS(=O)(=O)c1cccc(c1)C(=O)N(C1CC3(CC(N)C3)C1)[C@H](CC(C)C)CO2 (stereo in doubt) [Compound 292] |  |  | +++ (+++ is >60%) | > 6.00 | 
26 | COCCN1CCC(N2C(=O)c3cccc(c3)S(=O)(=O)Nc3nc(cc(-c4c(C)cccc4C)n3)OC[C@H]2CC(C)C)C1 (stereo in doubt) [Compound 294] |  |  |  |  | Ent. B Max Activity (%): +++ (+++ is >60%); pEC50 (read-out: Ent. B EC50): > 6.00
27 | Cc1cccc(C)c1-c1cc2nc(n1)NS(=O)(=O)c1cccc(c1)C(=O)N([C@H]1CCN(C)C1)[C@H](CC(C)C)CO2 (stereo in doubt) [Compound 295] |  |  |  |  | Ent. B Max Activity (%): +++ (+++ is >60%); pEC50 (read-out: Ent. B EC50): > 6.00
28 | Cc1cccc(C)c1-c1cc2nc(n1)NS(=O)(=O)c1cccc(c1)C(=O)N([C@H]1CCN(C)C1)[C@H](CC(C)C)CO2 (stereo in doubt) [Compound 296] |  |  |  |  | Ent. B Max Activity (%): +++ (+++ is >60%); pEC50 (read-out: Ent. B EC50): 4.52 to 5.52
29 | [H][C@]1(N2C(=O)c3cccc(c3)S(=O)(=O)Nc3nc(cc(-c4c(C)cccc4C)n3)OC[C@H]2CC(C)(C)C)C[C@@]2(C[C@H](NC(=O)OC3CCC3)C2)C1 (stereo in doubt) [Compound 355] | ++ (++ is 30-60%) | > 6.00 |  |  | 
30 | [H][C@]1(N2C(=O)c3cccc(c3)S(=O)(=O)Nc3nc(cc(-c4c(C)cccc4C)n3)OC[C@H]2CC(C)(C)C)C[C@@]2(C[C@H](NC(=O)OC3CC3)C2)C1 (stereo in doubt) [Compound 356] | +++ (+++ is >60%) | > 6.00 |  |  | 
31 | Cc1cccc(C)c1-c1cc2nc(n1)NS(=O)(=O)c1cccc(c1)C(=O)N([C@H]1C[C@@H](NC34CC(CO)(C3)C4)C1)[C@H](CC(C)C)CO2 (stereo in doubt) [Compound 358] | +++ (+++ is >60%) | > 6.00 |  |  | 
32 | Cc1cccc(C)c1-c1cc2nc(n1)NS(=O)(=O)c1cccc(c1)C(=O)N([C@H]1C[C@@H](OC(=O)Nc3ccccc3)C1)[C@H](CC(C)C)CO2 (stereo in doubt) [Compound 360] | +++ (+++ is >60%) | > 6.00 |  |  | 
33 | CNC(=O)O[C@H]1C[C@@H](N2C(=O)c3cccc(c3)S(=O)(=O)Nc3nc(cc(-c4c(C)cccc4C)n3)OC[C@H]2CC(C)C)C1 (stereo in doubt) [Compound 361] | ++ (++ is 30-60%) | > 6.00 |  |  | 
34 | Cc1cccc(C)c1-c1cc2nc(n1)NS(=O)(=O)c1cccc(c1)C(=O)N([C@H]1C[C@H](OC(=O)NCc3ccccc3)C1)[C@H](CC(C)C)CO2 (stereo in doubt) [Compound 362] | ++ (++ is 30-60%) | > 6.00 |  |  | 
35 | Cc1cccc(C)c1-c1cc2nc(n1)NS(=O)(=O)c1cccc(c1)C(=O)N([C@H]1C[C@H](OC(=O)NCC3CCCCC3)C1)[C@H](CC(C)C)CO2 (stereo in doubt) [Compound 363] | ++ (++ is 30-60%) | > 6.00 |  |  | 
36 | COCCNC(=O)O[C@H]1C[C@H](N2C(=O)c3cccc(c3)S(=O)(=O)Nc3nc(cc(-c4c(C)cccc4C)n3)OC[C@H]2CC(C)C)C1 (stereo in doubt) [Compound 364] | +++ (+++ is >60%) | > 6.00 |  |  | 
37 | Cc1cccc(C)c1-c1cc2nc(n1)NS(=O)(=O)c1cccc(c1)C(=O)N([C@H]1C[C@@H](N3C[C@@H](O)CC3=O)C1)[C@H](CC(C)C)CO2 (stereo in doubt) [Compound 370] | ++ (++ is 30-60%) | > 6.00 |  |  | 
